Like-named read-outs stand apart in the source and are kept apart here.
What was measured:
[1] = system: gubernaculum of female embryos; assay: Gubernaculum development in female embryos of treated pregnant mice; type: in vivo, C57BL/6J mice; settings: 30 mg/kg intraperitoneal to pregnant females, embryonic day 12.5 to 17.5
Excerpt: The role of INSL3 and RXFP2 in gubernaculum development for the initial transabdominal descent of the testis during embryogenesis has been widely characterized in Insl3^-/- and Rxfp2^-/- mouse models of cryptorchidism. […] The gubernaculum is composed of the gubernacular bulb and cord, and it has begun invagination into the abdominal wall in preparation for the inguinoscrotal stage of testicular descent, which will finalize after birth. […] The hypothesis for our experiment is that by injecting pregnant females with the RXFP2 agonists during this embryonic development window, gubemaculum development could be induced in female embryos, which has been previously shown in female embryos overexpressing INSL3. […] For this assay, whole embryos were fixed in 10% formaldehyde for 24 hours. Afterwards, embryos were washed twice with PBS for 1 hour, followed by 3 consecutive washes with increasing concentrations of ethanol (30%, 50% and 70%) for 30 minutes. Fixed embryos were prepared for histology using an automatic tissue processor (Leica TP1020, Leica Biosystems, Germany), embedded in paraffin wax, and 5-7 μm sagittal serial sections were cut using an automated rotary microtome (Leica RM2255, Leica Biosystems, Germany). […] At least 4 embryos were analyzed per treatment group.

[2] = Pharmacokinetic study in female mice (plasma, liver, bone); type: in vivo, female C57/BL6 mice
Excerpt: FIG. 24A depicts the plasma profile. FIG. 24B depicts the liver profile and FIG. 24C depicts the bone profiles. The actual concentration (ng/g) is the detected value (ng/mL) multiplied by 4. […] 40% HP-b-CD-75% PEG300. Three mice were used per time point. Results are expressed as the mean SEM.
2-hydroxypropyl-beta-cyclodextrin (HPBCD).
FIG. 24A depicts the plasma profile. FIG. 24B depicts the liver profile and FIG. 24C depicts the bone profiles. The actual concentration (ng/g) is the detected value (ng/mL) multiplied by 4. […] 40% HP-b-CD-75% PEG300. Three mice were used per time point. Results are expressed as the mean±SEM.

[3] = system: primary human calvarial osteoblasts (HCO); assay: CellTiter-Glo cytotoxicity assay in HCO cells; type: cell-based; settings: 24 h
Experimental: Cytotoxicity induced by the compounds in HEK293T cells and primary human calvarial osteoblasts (HCO) (ScienCell Research Laboratories, San Diego, CA) were tested using the […]-GLO™ Luminescent Cell Viability Assay (Promega, Madison, WI). This is a luminescence-based assay that determines viable cells by measuring cellular adenosine triphosphate (ATP) production. The luciferase enzyme requires ATP to catalyze the conversion of beetle luciferin to oxyluciferin and light. Thus, luciferase activity is proportional to ATP accumulation in the cells. For this assay, 96-well flat-bottom opaque plates seeded with HEK293T cells at 5,000 cells/well and HCO cells at 3,000 cells/well in 100 μL/well of growth medium (DMEM, 10% FBS, 1× Penicillin/Streptomycin). After incubating overnight at 37° C., 5% CO2 to allow attachment, cells were treated with 1 μL/well of compound (25-0.1 μM) or DMSO vehicle and incubated an additional 24 hours. Then cells were equilibrated for 30 minutes at room temperature and 100 μL/well of […]-GLO™ Reagent was added. Plates were placed on an orbital shaker for 2 minutes and incubated at room temperature for 10 minutes to stabilize the luminescent signal, which was read immediately after on a CLARIOstar plate reader (BMG Labtech, Germany). […] The HEK293T results represent the means±SEM of 3 technical replicates. The HCO results represent the means±SEM of 3 independent experiments.

[4] = bone, PO 10 mg/kg, one administration
[5] = liver, PO 10 mg/kg, one administration
[6] = plasma, PO 10 mg/kg, one administration

## O=C1Nc2ccc(-c3cc(C(F)(F)F)cc(C(F)(F)F)c3)cc2C(=O)N2CCN(C(=O)COc3ccc(OC(F)(F)F)cc3I)C[C@@H]12 [Example 187, (S)-8-(3,5-bis(trifluoromethyl)phenyl)-2-(2-(2-iodo-4-(trifluoromethoxy)phenoxy)acetyl)-1,3,4,12a-tetrahydrobenzo[e]pyrazino[1,2-a][1,4]diazepine-6,12 (2H, 11H)-dione]
[1]
  gubernaculum morphology in embryonic day 18.5 female embryos: male-like invagination of the gubemaculum
[2]; Table 10, IV 3 mg/kg
  Maximum serum concentration: 3.25 µg/mL
[2]; bone, IV 3 mg/kg
  AUCInf: 3687 ng·h/g
  AUClast: 3650 ng·h/g
[2]; [4]
  AUCInf: 2190 ng·h/g
  AUClast: 1897 ng·h/g
[2]; bone, PO (QD*3) 10 mg/kg
  AUCInf: 2573 ng·h/g
  AUClast: 2539 ng·h/g
[2]; female, C57/BL6, mouse, bone, iv, 3 mg/kg, IV 3 mg/kg
  Cmax: 1070 ng/g
[2]; female, C57/BL6, mouse, bone, po, 10 mg/kg, PO 10 mg/kg, one administration
  Cmax: 174 ng/g
[2]; female, C57/BL6, mouse, bone, po, 10 mg/kg, PO (QD*3) 10 mg/kg
  Cmax: 298 ng/g
[2]; female, C57/BL6, mouse, bone/plasma, iv, 3 mg/kg, IV 3 mg/kg, read-out: AUClast Ratio (Bone/Plasma)
  Kp: 1.14
[2]; female, C57/BL6, mouse, bone/plasma, iv, 3 mg/kg, IV 3 mg/kg, read-out: Cmax Ratio (Bone/Plasma)
  Kp: 0.419
[2]; female, C57/BL6, mouse, bone/plasma, po, 10 mg/kg, PO 10 mg/kg, one administration, read-out: AUClast Ratio (Bone/Plasma)
  Kp: 0.725
[2]; female, C57/BL6, mouse, bone/plasma, po, 10 mg/kg, PO 10 mg/kg, one administration, read-out: Cmax Ratio (Bone/Plasma)
  Kp: 0.475
[2]; female, C57/BL6, mouse, bone/plasma, po, 10 mg/kg, PO (QD*3) 10 mg/kg, read-out: AUClast Ratio (Bone/Plasma)
  Kp: 0.779
[2]; female, C57/BL6, mouse, bone/plasma, po, 10 mg/kg, PO (QD*3) 10 mg/kg, read-out: Cmax Ratio (Bone/Plasma)
  Kp: 0.766
[2]; female, C57/BL6, mouse, liver, iv, 3 mg/kg, IV 3 mg/kg
  Cmax: 28000 ng/g
[2]; female, C57/BL6, mouse, liver, po, 10 mg/kg, PO 10 mg/kg, one administration
  Cmax: 3210 ng/g
[2]; female, C57/BL6, mouse, liver, po, 10 mg/kg, PO (QD*3) 10 mg/kg
  Cmax: 3570 ng/g
[2]; female, C57/BL6, mouse, liver/plasma, iv, 3 mg/kg, IV 3 mg/kg, read-out: AUClast Ratio (Liver/Plasma)
  Kp: 8.3
[2]; female, C57/BL6, mouse, liver/plasma, iv, 3 mg/kg, IV 3 mg/kg, read-out: Cmax Ratio (Liver/Plasma)
  Kp: 10.9
[2]; female, C57/BL6, mouse, liver/plasma, po, 10 mg/kg, PO 10 mg/kg, one administration, read-out: AUClast Ratio (Liver/Plasma)
  Kp: 9.23
[2]; female, C57/BL6, mouse, liver/plasma, po, 10 mg/kg, PO 10 mg/kg, one administration, read-out: Cmax Ratio (Liver/Plasma)
  Kp: 8.78
[2]; female, C57/BL6, mouse, liver/plasma, po, 10 mg/kg, PO (QD*3) 10 mg/kg, read-out: AUClast Ratio (Liver/Plasma)
  Kp: 7.64
[2]; female, C57/BL6, mouse, liver/plasma, po, 10 mg/kg, PO (QD*3) 10 mg/kg, read-out: Cmax Ratio (Liver/Plasma)
  Kp: 9.18
[2]; female, C57/BL6, mouse, plasma, iv, 3 mg/kg, Table 10, IV 3 mg/kg, read-out: Area under the curve-AUCinf
  AUC(0-inf): 3200 ng·h/mL
[2]; female, C57/BL6, mouse, plasma, iv, 3 mg/kg, Table 10, IV 3 mg/kg, read-out: Area under the curve-AUClast
  AUC(0-t): 3190 ng·h/mL
[2]; female, C57/BL6, mouse, plasma, iv, 3 mg/kg, Table 10, IV 3 mg/kg, read-out: Concentration-C0
  C0: 3590 ng/mL
[2]; female, C57/BL6, mouse, plasma, iv, 3 mg/kg, Table 10, IV 3 mg/kg, read-out: Half life-t1/2 (converted)
  half-life: 394 min
[2]; female, C57/BL6, mouse, plasma, iv, 3 mg/kg, plasma, IV 3 mg/kg, read-out: AUCInf
  AUC(0-inf): 3200 ng·h/mL
[2]; female, C57/BL6, mouse, plasma, iv, 3 mg/kg, plasma, IV 3 mg/kg, read-out: AUClast
  AUC(0-t): 3190 ng·h/mL
[2]; female, C57/BL6, mouse, plasma, iv, 3 mg/kg, plasma, IV 3 mg/kg, read-out: C0
  C0: 3590 ng/mL
[2]; female, C57/BL6, mouse, plasma, iv, 3 mg/kg, plasma, IV 3 mg/kg, read-out: t1/2 (converted)
  half-life: 394 min
[2]; female, C57/BL6, mouse, plasma, po, 10 mg/kg, Table 10, POA single 10 mg/kg, read-out: Area under the curve-AUCinf
  AUC(0-inf): 2650 ng·h/mL
[2]; female, C57/BL6, mouse, plasma, po, 10 mg/kg, Table 10, POA single 10 mg/kg, read-out: Area under the curve-AUClast
  AUC(0-t): 2620 ng·h/mL
[2]; female, C57/BL6, mouse, plasma, po, 10 mg/kg, Table 10, POA single 10 mg/kg, read-out: Half life-t1/2 (converted)
  half-life: 233 min
[2]; female, C57/BL6, mouse, plasma, po, 10 mg/kg, Table 10, POB QD × 3, 10 mg/kg, read-out: Area under the curve-AUCinf
  AUC(0-inf): 3270 ng·h/mL
[2]; female, C57/BL6, mouse, plasma, po, 10 mg/kg, Table 10, POB QD × 3, 10 mg/kg, read-out: Area under the curve-AUClast
  AUC(0-t): 3260 ng·h/mL
[2]; female, C57/BL6, mouse, plasma, po, 10 mg/kg, Table 10, POB QD × 3, 10 mg/kg, read-out: Half life-t1/2 (converted)
  half-life: 353 min
[2]; female, C57/BL6, mouse, plasma, po, 10 mg/kg, plasma, PO 10 mg/kg, one administration, read-out: AUCInf
  AUC(0-inf): 2650 ng·h/mL
[2]; female, C57/BL6, mouse, plasma, po, 10 mg/kg, plasma, PO 10 mg/kg, one administration, read-out: AUClast
  AUC(0-t): 2620 ng·h/mL
[2]; female, C57/BL6, mouse, plasma, po, 10 mg/kg, plasma, PO 10 mg/kg, one administration, read-out: C0
  C0: 366 ng/mL
[2]; female, C57/BL6, mouse, plasma, po, 10 mg/kg, plasma, PO 10 mg/kg, one administration, read-out: t1/2 (converted)
  half-life: 233 min
[2]; female, C57/BL6, mouse, plasma, po, 10 mg/kg, plasma, PO (QD*3) 10 mg/kg, read-out: AUCInf
  AUC(0-inf): 3270 ng·h/mL
[2]; female, C57/BL6, mouse, plasma, po, 10 mg/kg, plasma, PO (QD*3) 10 mg/kg, read-out: AUClast
  AUC(0-t): 3260 ng·h/mL
[2]; female, C57/BL6, mouse, plasma, po, 10 mg/kg, plasma, PO (QD*3) 10 mg/kg, read-out: C0
  C0: 389 ng/mL
[2]; female, C57/BL6, mouse, plasma, po, 10 mg/kg, plasma, PO (QD*3) 10 mg/kg, read-out: t1/2 (converted)
  half-life: 353 min
[2]; female, C57/BL6, mouse, plasma, po, Table 10, POA single 10 mg/kg, read-out: Bioavailability-F
  bioavailability: 24.8%
[2]; female, C57/BL6, mouse, plasma, Table 10, IV 3 mg/kg, read-out: Mean residence time-MRTlast
  MRT last: 3.47 h
[2]; female, C57/BL6, mouse, plasma, Table 10, IV 3 mg/kg, read-out: Total clearance after IV administration-CLobs
  clearance: 15.6 mL/min/kg
[2]; female, C57/BL6, mouse, plasma, Table 10, IV 3 mg/kg, read-out: Volume of distribution in steady state-VSSobs
  Vd: 3.38 L/kg
[2]; female, C57/BL6, mouse, bone, IV 3 mg/kg
  Tmax: 0.083 h
[2]; female, C57/BL6, mouse, bone, PO 10 mg/kg, one administration
  Tmax: 3 h
[2]; female, C57/BL6, mouse, liver, IV 3 mg/kg
  Tmax: 0.083 h
[2]; female, C57/BL6, mouse, liver, PO 10 mg/kg, one administration
  Tmax: 1 h
[2]; female, C57/BL6, mouse, plasma, IV 3 mg/kg
  MRT: 3.47 h
[2]; female, C57/BL6, mouse, plasma, PO 10 mg/kg, one administration
  Tmax: 1 h
[2]; liver, IV 3 mg/kg
  AUCInf: 26524 ng·h/g
  AUClast: 26492 ng·h/g
[2]; [5]
  AUCInf: 24170 ng·h/g
  AUClast: 24146 ng·h/g
[2]; liver, PO (QD*3) 10 mg/kg
  AUCInf: 24965 ng·h/g
  AUClast: 24927 ng·h/g
[2]; plasma, IV 3 mg/kg
  AUC_%Extrap: 0.258%
  Cl_obs: 15.6 mL/min/kg
  Vss_obs: 3.38 L/kg
[2]; [6]
  AUC_%Extrap: 1.20%
  F: 24.8%
[2]; plasma, PO (QD*3) 10 mg/kg
  AUC_%Extrap: 0.265%
[3]; 25 μM
  cytotoxicity: minimal toxicity
[3]; lower concentrations than 25 μM
  cytotoxicity: not toxic
